Literature values in patent US9861579B2, “Foamable formulation” (Nuvo Pharmaceuticals Inc., priority 2010, dated 2018).

log P: 3.6 | solubility in water (practically insoluble in water): < 100 µg/mL
SMILES: CC(C)Cc1ccc(C(C)C(=O)O)cc1 (racemic) [Ibuprofen, 2-(4-isobutylphenyl) propanoic acid]
